Assay results published in US20250222028A1, “ENGINEERED IMMUNE CELL PLATFORM” (Cancer Research Technology Limited, priority 2022, published 2025).

Experiments:
CD8+ T cells = assay: Flow cytometric analysis of viability, proliferation and memory subsets of CD8+ T cells; type: cell-based; conditions: 10 μM, 24 h
Experimental: FIG. 11. […] Naïve CD8+ T cells were stimulated with plate-bound anti-CD3/CD28 antibodies for 24 h in the presence of 10 μM FPL64176 or carrier control before flow cytometric analysis (FIG. 11A-D). (A) Quantitative analysis of live cell numbers. (B) Percentage of cells positive for the apoptotic marker Apotracker™ Green. (C) Percentage of cells positive for cell viability dye DAPI. (D) Analysis of T cell subsets based on the expression of CD44 and CD62L: CD44− CD62L+ (naïve), CD44+ CD62L+ (central memory), and CD44+ CD62L− (effector memory). (FIG. 11E-G) CTLs were restimulated on day 10 with plate-bound anti-CD3 antibody for 24 h in the presence of 10 μM FPL64176 or carrier control before flow cytometric analysis. (E) Quantitative analysis of live cell numbers. (F) Percentage of cells positive for the apoptotic marker Apotracker™ Green. (G) Percentage of cells positive for the cell viability dye DAPI. […]
(§1) To ensure that the use of L-type Cav agonist is not adversely affecting immune cells, general cell functions were assessed. […]

EL-4 tumour cells = assay: LDH cytotoxicity assay, OT-I CD8+ CTLs co-cultured with Ova peptide-pulsed EL-4 target cells; type: cell-based, murine; conditions: 10 μM, over a range of effector-to-target ratios, vs carrier control
Experimental: FIG. 1. L-type Cav channel agonists increase Gli1 expression and enhance specific cell killing by murine CD8+ CTLs. CD8^+ T cells were isolated from the spleen and inguinal lymph nodes of Rag2^−/− OT-I mice, and CTLs were generated. (A) Cells were restimulated on day 9/10 for 3 hours using plate-bound anti-CD3ε in the presence of indicated concentrations of FPL 64176 or carrier control. RNA was extracted and Gli1 expression was assessed by qRT-PCR. Data is n=3 independent experiments. us=unstimulated cells. (B) An LDH cytotoxicity assay was performed using OT-I CTLs. On day 7, CTLs were co-cultured with Ova peptide-pulsed EL-4 cells in the presence of 10 μM FPL 64176 (squares) or carrier control (circles). Data is n=4 independent experiments. (C) Updated experiment of (A). Data is now n=4 independent experiments. Data is normalised to Tbp as a reference gene. 0h=unstimulated cells. (D) Same data as (B) represented differently. […] Error bars indicate SD. p values were calculated using an unpaired two-tailed Student's t test (C) or a two-way ANOVA (B/D). * indicates p<0.05, ** indicates p<0.01, **** indicates p<0.0001.
FIG. 11. […] (A) Quantitative analysis of live cell numbers. […] (E) Quantitative analysis of live cell numbers. […]
as §1

## COC(=O)c1c(C)[nH]c(C)c1C(=O)c1ccccc1Cc1ccccc1 [FPL 64176]
CD8+ T cells; naïve CD8+ T cells stimulated with anti-CD3/CD28
  memory phenotypes (CD44/CD62L subsets): does not affect
CD8+ T cells; live cell numbers, Apotracker Green, DAPI
  viability or proliferation of naïve and cytotoxic CD8+ T cells: does not impair
EL-4 tumour cells
  improvement of specific cell killing of EL-4 tumour cells: at least 100%
